According to article PMC12378621, “Benzo-ring modification on Malaria Box hit MMV008138: effects on antimalarial potency and microsomal stability” (RSC Medicinal Chemistry, 2025):
Values joined by “and” are separate entries in the source; they are usually repeats but may differ in a detail not shown here. Equal entries are not always repeated. “Also recorded” adds a separate entry of the source.

What was measured:
[1] = system: P. falciparum (Dd2 strain); test: Metabolic rescue of parasite growth by isopentenyl diphosphate (IPP) supplementation; assay type: cell-based, Plasmodium falciparum
Protocol: (§1) […]. MMV008138 (1) was used as control. The percentage of growth was normalized to that of untreated control parasites in the presence of 0.1% DMSO. Background determinations were made using uninfected erythrocytes. Two or more independent experiments in duplicate were performed. The EC50 values were calculated with GraphPad Prism 9 (GraphPad Software Ltd.) using nonlinear regression curve fitting with variable slope (four parameters) and represent the average and their standard error of the mean (S.E.M.). To assess whether 20a–e specifically targeted the apicoplast, the recovery of growth in the presence of inhibitor and isopentenyl diphosphate (IPP) was performed as described previously.[8] Briefly, parasites were grown in the presence or absence of 200 μM IPP along with a serial dilution (10 μM to 0.01 μM) or single concentration (10 or 20 μM) of drug. […] All conditions were set in 96-well half area plates using highly synchronous ring-stage parasite cultures (100 μL per well at 1% hematocrit and 1% parasitemia) and incubated for 72 h under normal culture conditions. Parasite growth was measured by the SYBR green I assay.

in vitro [2] = conditions: female, CD-1, mouse, microsomes, pH 7.4
Protocol: Mouse microsomal stability of 20a, 20c, 20d was first assessed in our laboratory. […]
and coumarin were used as controls . Microsomal stability was assessed by ultra-performance liquid chromatography and high -resolution mass spectrometry […]
MA). Potassium phosphate monobasic, potassium phosphate dibasic, and coumarin were purchased from Sigma-Aldrich (St. Louis, MO). Briefly, compound incubations were carried out by the addition of mouse liver microsomes (0.5 mg/ml) in 0.05 M potassium phosphate buffer (pH 7.4), solution A and B, and preincubated at 37°C for 5 min. Control experiments were also carried out in the absence of NADPH solution A and B. Coumarin reaction was used as positive control. Reactions were terminated by adding acetonitrile. Sample analysis was performed on an IonKey/MS system composed of an ACQUITY UPLC M-Class, the ionKey source, and an iKey BEH C18 130 Å 1.7 µm 150 µm x 50 mm column coupled to a Synapt G2-Si mass spectrometer (Waters Corporation, Milford, MA, USA). Separation was accomplished using a binary gradient system consisting of 0.1% formic acid in water (mobile phase A) and 0.1% formic acid in acetonitrile (mobile phase B). The linear gradient was programmed as follows: 0-3 min 1% B, 3- […]
was 3 µL/min, the injection volume was 3 µL in full loop mode, and the iKey temperature was set at 40°C. MS analyses were performed acquiring in MSE mode from 80 to 1500 m/z in positive electrospray ionization mode with a capillary voltage of 3 kV. Data were collected in two channels all the time: low collision energy (6.0 V), for the molecular ions, and high collision energy (15-40 V), for product ions. The source temperature was set at 110°C. Leucine […]
scan at 20 s intervals. Infusion flow rate for lock mass was 1 μL/min. The microsomal stability was determined using MassLynx software (Waters Corporation, Milford, MA, USA). Relative amounts were calculated by comparing the peak area of each evaluated compound at time 0 minutes to its corresponding area at times 45, 90 and 180 minutes to return a ratio.

[3] = system: P. falciparum (Dd2 strain); test: ABS P. falciparum growth inhibition, SYBR Green I assay, 72 h endpoint; assay type: cell-based, Plasmodium falciparum; conditions: for EC50: Plasmodium falciparum, DD2, Table 2, enantiopure, SYBR Green I, 72 h endpoint, average ± S.E.M, read-out: Dd2 strain P. falciparum growth inhibition EC50
Protocol: Parasites were maintained in O-positive human erythrocytes (Grifols, Memphis, TN, USA) at 5% hematocrit in RPMI 1640 medium supplemented with 5 g L^−1 Albumax I (Gibco Life Technologies), 2 g L^−1 glucose (Sigma-Aldrich), 2.3 g L^−1 sodium bicarbonate (Sigma-Aldrich), 370 μM hypoxanthine (Sigma-Aldrich), 25 mM HEPES, and 20 mg L^−1 gentamicin (Gibco Life Technologies). The parasites were kept at 37 °C under reduced-oxygen conditions (5% CO2, 5% O2, and 90% N2).
as §1

in vivo = conditions: mouse
Protocol: 3. Pharmacokinetics of 1 in mice
Pharmacokinetic analysis of 1 in mice was performed by Pharmaron (Beijing, China). Three mice each (23 ± 1 g) were used for oral (40 mg/kg, gavage, conscious) and for IV (10 mg/kg, lateral tail vein with anesthesia) administration. The vehicle for both routes wa s 20% DMSO, 60% PEG400 and 20% SBE-β-CD (30% w/v) in water. Stock concentrations were 4 mg/mL (both oral and IV respectively), and mice were dosed at 10.0 and 2.5 mL/kg (oral and IV respectively).
Quantitation was performed by triple-quad LC-MS.

[4] = system: Plasmodium berghei ANKA expressing luciferase (PbGFP-Luccon); test: In vivo efficacy in P. berghei-infected mice (luminescence on Day 7)
Protocol: 2. In vivo efficacy studies of 1 (NYU) in P. berghei-infected mice (po and iv) Efficacy of 1 in P. berghei-infected mice was assessed at the Anti-Infectives Core Facility, Department of Microbiology, Grossman School of Medicine, New York University.
A. Oral Administration Protocol
Three groups of five female Swiss Webster mice weighing 25 to 30 g were used for vehicle […]
berghei ANKA expressing luciferase (PbGFP-Luccon) obtained from a donor infected mouse.10 […]
2 to 6 and imaged on day 7.
Figure S1. Dosing and imaging timeline of P. berghei-infected mice. […]
Day 7 as described in the text.
The vehicle for all groups was 0.5% (hydroxypropyl)methyl cellulose, 0.5% Tween-80.
For the surviving mice, o n day 7 after infection, mice were anesthetized by inhalation of isofluorane and injected via i.p. with 150 mg/kg of luciferase substrate dissolved in PBS (D-Luciferin Potassium Salt , Gold Biotechnology ).
Mice were imaged 5 to 10 min after inj ection of luciferin using an IVIS imager (Lumina II In Vivo Imaging System; Perkin -Elmer). The data acquisition and analysis were performed with LivingImage (Xenogen). Accumulated light intensity was measured in each mouse to determine the baseline infection levels before treatment .
(§2) (1 picture or pasted object on this page, not shown here)
B. IV Administration Protocol
One group of four female Swiss Webster mice weighing 25 to 30 g were used for vehicle control, and groups of five mice were used for 1 treatment (IV, 2 x 30 mg/kg/d) and the positive […]
On Day 0, mice were infected via intraperitoneal (i.p.) […]
from a donor infected mouse. 10 As shown below in Figure S2 (and legend), mice were treated […]
Figure S2. Dosing and imaging timeline of P. berghei-infected mice. Vehicle and 1 (30 mpk) treatments were administered IV twice -daily on Days 2-6. […]
administered i .p. once-daily. Mice were imaged on Day 7, as described in the text.
The vehicle for this study was 30%PEG, 40% Captisol (30%w/v solution).
Table S2. Luminescence Data after background subtraction for IV dosing of Vehicle, 1, and IP […]
Table S9. Concentration of 20c vs time in mice. […]
Figure S6. Dosing and imaging timeline of P. berghei-infected mice. […]

in vitro [5] = conditions: male, mouse, microsomes; for % remaining, Replicate 1 / Replicate 2: 1 µM; for remaining at 0.5 min, 1 µM / remaining at 5 min, 1 µM / remaining at 10 min, 1 µM / remaining at 0.25 h, 1 µM / remaining at 20 min, 1 µM / remaining at 0.5 h, 1 µM: % remaining, Replicate 1 / Replicate 2
Protocol: Metabolic stability of 1 was studied in pooled male mouse liver microsomes (final concentration 0.5 mg/mL, 5 mM MgCl 2, 100 mM phosphate buffer). The final concentration of test […]
The mixture was pre-warmed 37°C for 5 min before addition of 50 μL of 10 mM NADPH solution at the final concentration of 1 mM and carried out at 37°C. 50 μL of ultra-pure H2O was used instead of NADPH solution in the […]
negative control. […] Drug […]
concentrations were determined using triple quad LC-MS (Table S5).
as §2

[6] = iv, 10 mg/kg, plasma concentration
[7] = po, 40 mg/kg, plasma concentration
[8] = Table S10, 40 mg/kg 1 x daily PO Days 2-6, imaged Day 7

O=C(O)[C@@H]1Cc2c([nH]c3cccc(F)c23)[C@@H](c2ccc(Cl)cc2Cl)N1 [Compound 20a]
% recovery (200 μM IPP) ([1]; drug at 2.5 μM): 100%@2.5 μM | half-life (in vitro [2]): ~0.167 h | EC50 [3]: 451 ± 28 nM

O=C(O)[C@@H]1Cc2c([nH]c3cc(F)ccc23)[C@@H](c2ccc(Cl)cc2Cl)N1 [Compound 20c]
% recovery (200 μM IPP) ([1]; drug at 2.5 μM): 100%@2.5 μM | AUC(0-inf) (in vivo; iv, 10 mg/kg): 49.6 µM·h | AUC(0-t) (in vivo; iv, 10 mg/kg): 48.7 µM·h | C0 (in vivo; iv, 10 mg/kg): 34.5 µM | clearance (in vivo; iv, 10 mg/kg): 8.85 mL/min/kg | tlast (in vivo; iv, 10 mg/kg): 24 h | concentration at 24 h (in vivo; iv, 10 mg/kg, Cmin): 0.1 ± 0.1 µM | concentration at 0.083 h (in vivo; [6]): 33.3 µM | concentration at 0.25 h (in vivo; [6]): 30.9 ± 4 µM | concentration at 0.5 h (in vivo; [6]): 14.4 ± 4.1 µM | concentration at 1 h (in vivo; [6]): 9.7 ± 2 µM | concentration at 2 h (in vivo; [6]): 3.3 ± 1.5 µM | concentration at 4 h (in vivo; [6]): 1.4 ± 0.4 µM | concentration at 8 h (in vivo; [6]): 1.4 ± 0.3 µM | concentration at 24 h (in vivo; [6]): 0.1 ± 0.1 µM | half-life (in vivo; iv, 10 mg/kg, t1/2): 4.96 h | AUC0-inf (in vivo; po, 40 mg/kg): 114 µM·h | AUC(0-inf) (in vivo; po, 40 mg/kg): 114 µM·h | AUC(0-t) (in vivo; po, 40 mg/kg): 110 µM·h | Cmax (in vivo; po, 40 mg/kg): 19.9 ± 8.1 µM | Tmax (in vivo; po, 40 mg/kg): 0.5 h | oral AUC0-inf higher than that of 1 (in vivo; po, 40 mg/kg): 30% | tlast (in vivo; po, 40 mg/kg): 24 h | bioavailability (in vivo; po, 40 mg/kg, % F): 58% | bioavailability (in vivo; po, 40 mg/kg, %F): 57.8% | concentration at 24 h (in vivo; po, 40 mg/kg, Cmin): 0.6 ± 0.6 µM | concentration at 0.25 h (in vivo; [7]): 19.8 ± 8.1 µM | concentration at 0.5 h (in vivo; [7]): 19.9 ± 3.2 µM | concentration at 1 h (in vivo; [7]): 13.9 ± 10.8 µM | concentration at 2 h (in vivo; [7]): 8.8 ± 5.9 µM | concentration at 4 h (in vivo; [7]): 10 ± 3.7 µM | concentration at 8 h (in vivo; [7]): 3.9 ± 0.7 µM | concentration at 24 h (in vivo; [7]): 0.6 ± 0.06 µM | half-life (in vivo; po, 40 mg/kg, t 1/2): 5.2 h | half-life (in vivo; po, 40 mg/kg, t1/2): 5.17 h | reduction of luminescence relative to vehicle control ([4]; 40 mg/kg po Days 2-6, Day 7): did not reduce luminescence | reduction in parasitemia / efficacy ([4]; P. berghei mouse model, oral dosing (20c 5 × 40 mg per kg per day)): no reduction in parasitemia; also recorded: not efficacious | Luminescence after background subtraction AVG [4, 8]: 9.7E+06 | Luminescence after background subtraction, individual mice [4, 8]: 6.51E+05 and 2.35E+06 and 3.10E+06 and 4.05E+05 and 1.33E+06 | EC50 [3]: 501 ± 47 nM | % remaining, Replicate 1 / Replicate 2 (in vitro [5]; 5 min): 105.2% | % remaining, Replicate 1 / Replicate 2 (in vitro [5]; 10 min): 105.5% | % remaining, Replicate 1 / Replicate 2 (in vitro [5]; 0.25 h): 100.5% | % remaining, Replicate 1 / Replicate 2 (in vitro [5]; 20 min): 100.4% | % remaining, Replicate 1 / Replicate 2 (in vitro [5]; 0.5 h): 85.7% | remaining at 0.5 min, 1 µM (in vitro [5]): 100% | remaining at 5 min, 1 µM (in vitro [5]): 90.9% | remaining at 10 min, 1 µM (in vitro [5]): 91.4% | remaining at 0.25 h, 1 µM (in vitro [5]): 84.7% | remaining at 20 min, 1 µM (in vitro [5]): 85.9% | remaining at 0.5 h, 1 µM (in vitro [5]): 95.2%

O=C(O)[C@@H]1Cc2c([nH]c3c(F)cccc23)[C@@H](c2ccc(Cl)cc2Cl)N1 [Compound 20d]
% recovery (200 μM IPP) ([1]; drug at 10 μM): 100%@10 μM | loss of growth inhibition potency (EC50) relative to 1 ([3]; Dd2 strain): ≤ 3 fold | EC50 [3]: 717 ± 73 nM | % remaining, Replicate 1 / Replicate 2 (in vitro [5]; 5 min): 56.5% | % remaining, Replicate 1 / Replicate 2 (in vitro [5]; 10 min): 41.8% | % remaining, Replicate 1 / Replicate 2 (in vitro [5]; 0.25 h): 31.5% | % remaining, Replicate 1 / Replicate 2 (in vitro [5]; 20 min): 28.2% | % remaining, Replicate 1 / Replicate 2 (in vitro [5]; 0.5 h): 25.1% | remaining at 0.5 min, 1 µM (in vitro [5]): 100% | remaining at 5 min, 1 µM (in vitro [5]): 61.1% | remaining at 10 min, 1 µM (in vitro [5]): 42.6% | remaining at 0.25 h, 1 µM (in vitro [5]): 34.3% | remaining at 20 min, 1 µM (in vitro [5]): 30.3% | remaining at 0.5 h, 1 µM (in vitro [5]): 24.8%
